The source made the active and inactive calls. The rule behind the calls is not given here.
Columns and labels:
[1] = target: T1, Glutaminase kidney isoform, mitochondrial (Homo sapiens, UniProt O94925); assay: Allosteric inhibition of human GLS1 using glutamine as substrate incubated for 60 mins by NADH/NADPH-based absorbance analysis
T1 sequence (O94925 whole entry): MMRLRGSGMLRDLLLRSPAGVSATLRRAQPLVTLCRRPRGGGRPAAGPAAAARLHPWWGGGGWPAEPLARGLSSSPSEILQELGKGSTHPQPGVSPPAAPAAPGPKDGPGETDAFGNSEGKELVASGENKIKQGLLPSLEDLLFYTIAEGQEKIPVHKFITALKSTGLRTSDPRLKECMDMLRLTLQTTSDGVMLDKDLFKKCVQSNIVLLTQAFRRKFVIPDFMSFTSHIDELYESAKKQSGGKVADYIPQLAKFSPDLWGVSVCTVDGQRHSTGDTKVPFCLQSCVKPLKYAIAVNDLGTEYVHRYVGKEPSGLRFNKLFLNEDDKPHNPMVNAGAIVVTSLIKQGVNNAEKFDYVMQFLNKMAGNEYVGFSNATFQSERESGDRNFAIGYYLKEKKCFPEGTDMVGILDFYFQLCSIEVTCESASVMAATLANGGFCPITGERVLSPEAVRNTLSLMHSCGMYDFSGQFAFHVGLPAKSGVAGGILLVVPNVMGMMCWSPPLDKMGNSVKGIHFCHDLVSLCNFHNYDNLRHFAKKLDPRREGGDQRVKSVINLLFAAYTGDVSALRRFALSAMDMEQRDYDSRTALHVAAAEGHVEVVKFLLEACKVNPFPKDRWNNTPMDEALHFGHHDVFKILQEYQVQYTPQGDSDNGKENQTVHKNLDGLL

[2] = Metabolic stability in human liver microsomes assessed as intrinsic clearance at 10 uM by LC-MS/MS analysis; type: ADME, Microsome; settings: read-out: CLH
[3] = Metabolic stability in human liver microsomes assessed as half life at 10 uM by LC-MS/MS analysis; type: ADME, Microsome; settings: liver microsomes
HCT-116 [4] = assay: Antiproliferative activity against human HCT-116 cells overexpressing GLS1 assessed as inhibition of cell proliferation measured after 72 hrs by MTT assay; type: functional, cell-based; settings: HCT-116, 72 h
MDA-MB-436 = assay: Antiproliferative activity against human MDA-MB-436 cells overexpressing GLS1 assessed as inhibition of cell proliferation measured after 72 hrs by MTT assay; type: functional, cell-based; settings: MDA-MB-436, 72 h
[5] = target: T1, Glutaminase kidney isoform, mitochondrial; assay: Binding affinity to human GLS1 assessed as dissociation constant by surface plasmon resonance analysis
H22 = assay: Antiproliferative activity against mouse H22 cells assessed as inhibition of cell proliferation measured after 72 hrs by MTT assay; type: functional, cell-based; settings: H22, 72 h
HCT-116 [6] = assay: Induction of apoptosis in human HCT-116 cells assessed as late apoptotic cells at 30 nM measured after 24 hrs by Annexin V-FITC/PI staining based flow cytometry method (reference value: 3.55 %); type: functional
HCT-116 [7] = assay: Induction of apoptosis in human HCT-116 cells assessed as necrotic cells at 30 nM measured after 24 hrs by Annexin V-FITC/PI staining based flow cytometry method (reference value: 0.48 %); type: functional
HCT-116 [8] = assay: Induction of apoptosis in human HCT-116 cells assessed as late apoptotic cells at 50 nM measured after 24 hrs by Annexin V-FITC/PI staining based flow cytometry method (reference value: 3.55 %); type: functional
HCT-116 [9] = assay: Induction of apoptosis in human HCT-116 cells assessed as necrotic cells at 50 nM measured after 24 hrs by Annexin V-FITC/PI staining based flow cytometry method (reference value: 0.48 %); type: functional
HCT-116 [10] = assay: Induction of apoptosis in human HCT-116 cells assessed as late apoptotic cells at 200 nM measured after 24 hrs by Annexin V-FITC/PI staining based flow cytometry method (reference value: 3.55 %); type: functional
HCT-116 [11] = assay: Induction of apoptosis in human HCT-116 cells assessed as necrotic cells at 200 nM measured after 24 hrs by Annexin V-FITC/PI staining based flow cytometry method (reference value: 0.48 %); type: functional
[12] = AUC (0 to t) in Sprague-Dawley rat at 10 mg/kg, ip measured for 72 hrs by LC-MS/MS analysis; type: ADME, organism-based; set-up: time 72 hrs, dose 10 mg/kg, route ip; settings: in vivo
[13] = AUC (0 to infinity) in Sprague-Dawley rat at 5 mg/kg, iv measured for 72 hrs by LC-MS/MS analysis; type: ADME, organism-based; set-up: time 72 hrs, dose 5 mg/kg, route iv; settings: in vivo
[14] = Half life in Sprague-Dawley rat at 5 mg/kg, iv measured for 72 hrs by LC-MS/MS analysis; type: ADME, organism-based; settings: in vivo
[15] = MRT (0 to infinity) in Sprague-Dawley rat at 5 mg/kg, iv measured for 72 hrs by LC-MS/MS analysis; type: ADME, organism-based; settings: in vivo
[16] = MRT (0 to infinity) in Sprague-Dawley rat at 10 mg/kg, ip measured for 72 hrs by LC-MS/MS analysis; type: ADME, organism-based; settings: in vivo
[17] = Apparent volume of distribution in Sprague-Dawley rat at 10 mg/kg, ip measured for 72 hrs by LC-MS/MS analysis; type: ADME, organism-based; settings: in vivo
HCT-116 [18] = assay: Antitumor activity against human HCT-116 cells xenografted in BALB/c SPF mouse assessed as tumor growth inhibition at 50 mg/kg, ip administered BID for 21 days; type: functional; settings: HCT-116, 504 h, time 21 day, read-out: TGI
HCT-116 [19] = assay: Antitumor activity against human HCT-116 cells xenografted in BALB/c SPF mouse assessed as tumor growth inhibition at 100 mg/kg, ip administered BID for 21 days; type: functional; settings: Mus musculus, HCT-116, 504 h, time 21 day, read-out: TGI
[20] = Toxicity in nude mouse xenografted with human HCT-116 cells assessed as heart damage by measuring edema and atrophy at 50 to 100 mg/kg, ip measured after 21 days by H and E staining based analysis; type: organism-based; settings: in vivo, 504 h, dose 50-100 mg/kg, time 21 day
[21] = Toxicity in nude mouse xenografted with human HCT-116 cells assessed as spleen damage by measuring edema and atrophy at 50 to 100 mg/kg, ip measured after 21 days by H and E staining based analysis; type: organism-based; settings: in vivo, 504 h, dose 50-100 mg/kg, time 21 day
[22] = Toxicity in nude mouse xenografted with human HCT-116 cells assessed as lung damage by measuring edema and atrophy at 50 to 100 mg/kg, ip measured after 21 days by H and E staining based analysis; type: organism-based; settings: in vivo, 504 h, dose 50-100 mg/kg, time 21 day
[23] = Toxicity in nude mouse xenografted with human HCT-116 cells assessed as kidney damage by measuring edema and atrophy at 50 to 100 mg/kg, ip measured after 21 days by H and E staining based analysis; type: organism-based; settings: in vivo, 504 h, dose 50-100 mg/kg, time 21 day
[24] = target: T2, Glutaminase kidney isoform, mitochondrial (Homo sapiens) (UniProt O94925); settings: filed as negative allosteric modulator
T2 sequence (whole entry): T1 sequence (O94925 whole entry)
Description: Binding affinity to human GLS1 assessed as stabilization of protein by measuring change in melting temperature by protein thermal shift assay

[25] = target: T2, Glutaminase kidney isoform, mitochondrial (Homo sapiens); settings: HCT-116, filed as negative allosteric modulator, dose 100-300 nM, time 12.0 hrs
[26] = target: T2, Glutaminase kidney isoform, mitochondrial (Homo sapiens); settings: HCT-116, filed as negative allosteric modulator, dose 100-300 nM, time 12.0 hrs; remark: listed apart in the source

IC50 [1]: 11.9 nM | microsomal CLint at 10 µM [2]: 8.95 µL/min/mg | half-life at 10 µM [3]: 3.24 h | IC50 (HCT-116 [4]): 51 nM | IC50 (MDA-MB-436): 370 nM | Kd [5]: 52 nM | AUC(0-t) at 72 h [12]: 2900 ng·h/mL | AUC(0-inf) [13]: 7310 ng·h/mL | half-life [14]: 7.44 h | MRT inf [15]: 4.97 h | MRT inf [16]: 13 h | Vd/F [17]: 36.1 L/kg | ΔTm [24]: 14.9 °C | inhibition [25]: Active | inhibition [26]: Active
SMILES: O=C(Cc1ccccc1)Nc1nnc(NC2CCN(c3nnc(NC(=O)c4nccn4Cc4ccc(C(F)(F)F)cc4)s3)CC2)s1
IC50 (H22): 10800 nM | Activity (HCT-116 [6]): 4.99% | Activity (HCT-116 [7]): 0.048% | Activity (HCT-116 [8]): 5.4% | Activity (HCT-116 [9]): 0.01% | Activity (HCT-116 [10]): 13.2% | Activity (HCT-116 [11]): 0.02% | inhibition in vivo at 50 mg/kg (HCT-116 [18]): 35.5% | inhibition in vivo at 100 mg/kg (HCT-116 [19]): 47.5% | Activity [20]: Non-Toxic | Activity [21]: Non-Toxic | Activity [22]: Non-Toxic | Activity [23]: Non-Toxic

Source: ChEMBL document CHEMBL5154870, “Discovery of novel glutaminase 1 allosteric inhibitor with 4-piperidinamine linker and aromatic heterocycles” (Eur J Med Chem, 2022)
